# From US10844077B2, “Thiazolyl-containing compounds for treating proliferative diseases” (Dana-Farber Cancer Institute, Inc., priority 2014, dated 2020)
# “And” between values parts separate entries of the source, which are not always exact repeats. Identical values can stand only once. Like-named read-outs stand apart in the source and are kept apart here.
# How the values were obtained:
# Experiment in all cases: KINATIV assay
# Assay type in all cases: cell-based
# PHKg2 = PHKg2 (Homo sapiens (Human), UniProt P15735); details: 1 μM, 90 minutes, BCWM.1 cells
# Method: (§1) The cells were harvested and lysed. The lysates were directly labeled with an ATP-biotin probe. Bound kinases were identified and quantitated by ACTIVX as described in Patricelli et al., Biochemistry, 2007, 46(2): 350-358. The compounds were tested in duplicates against duplicate or quadruplicate control samples.
# EphB2 = EphB2 (Homo sapiens (Human), UniProt P29323); details: 1 μM, 90 minutes, BCWM.1 cells
# Method: as §1
# Wnk1, Wnk2, Wnk3 = details: 1 μM, 90 minutes, BCWM.1 cells
# Method: as §1
# MST2 = MST2 (Homo sapiens (Human), UniProt Q13188); details: 1 μM, 90 minutes, BCWM.1 cells
# Method: as §1
# PI4KA, PI4KAP2 = details: 1 μM, 90 minutes, BCWM.1 cells
# Method: as §1
# p70S6K = p70S6K (Homo sapiens (Human), UniProt P23443); details: 1 μM, 90 minutes, BCWM.1 cells
# Method: as §1
# SRPK1, SRPK2 = details: 1 μM, 90 minutes, BCWM.1 cells
# Method: as §1
# CaMK2g = CaMK2g (Homo sapiens (Human), UniProt Q13555); details: 1 μM, 90 minutes, BCWM.1 cells
# Method: as §1
# PITSLRE = details: 1 μM, 90 minutes, BCWM.1 cells
# Method: as §1
# RSK1, RSK2, RSK3 domain1 = details: 1 μM, 90 minutes, BCWM.1 cells
# Method: as §1
# SRPK1 = SRPK1 (Homo sapiens (Human), UniProt Q96SB4); details: 1 μM, 90 minutes, BCWM.1 cells
# Method: as §1
# BLK = BLK (Homo sapiens (Human), UniProt P51451); details: 1 μM, 90 minutes, BCWM.1 cells
# Method: as §1
# ZC2/TNIK = ZC2/TNIK (Homo sapiens (Human), UniProt Q9UKE5); details: 1 μM, 90 minutes, BCWM.1 cells
# Method: as §1
# VRK2 = VRK2 (Homo sapiens (Human), UniProt Q86Y07); details: 1 μM, 90 minutes, BCWM.1 cells
# Method: as §1
# FRK = FRK (Homo sapiens (Human), UniProt P42685); details: 1 μM, 90 minutes, BCWM.1 cells
# Method: as §1
# ITPK1 = ITPK1 (Homo sapiens (Human), UniProt Q13572); details: 1 μM, 90 minutes, BCWM.1 cells
# Method: as §1
# NEK4 = NEK4 (Homo sapiens (Human), UniProt P51957); details: 1 μM, 90 minutes, BCWM.1 cells
# Method: as §1
# [1] = system: ZC1/HGK, ZC2/TNIK, ZC3/MINK; details: 1 μM, 90 minutes, BCWM.1 cells
# Method: as §1
# PI4KB = PI4KB (Homo sapiens (Human), UniProt Q9UBF8); details: 1 μM, 90 minutes, BCWM.1 cells
# Method: as §1
# NLK = NLK (Homo sapiens (Human), UniProt Q9UBE8); details: 1 μM, 90 minutes, BCWM.1 cells
# Method: as §1
# AKT1 = AKT1 (Homo sapiens (Human), UniProt P31749); details: 1 μM, 90 minutes, BCWM.1 cells
# Method: as §1
# MST1, MST2 = details: 1 μM, 90 minutes, BCWM.1 cells
# Method: as §1
# AurA, AurB, AurC = details: 1 μM, 90 minutes, BCWM.1 cells
# Method: as §1
# MARK3 = MARK3 (Homo sapiens (Human), UniProt P27448); details: 1 μM, 90 minutes, BCWM.1 cells
# Method: as §1
# PYK2 = PYK2 (Homo sapiens (Human), UniProt Q14289); details: 1 μM, 90 minutes, BCWM.1 cells
# Method: as §1
# CK2a2 = CK2a2 (Homo sapiens (Human), UniProt P19784); details: 1 μM, 90 minutes, BCWM.1 cells
# Method: as §1
# PEK = PEK (Homo sapiens (Human), UniProt Q9NZJ5); details: 1 μM, 90 minutes, BCWM.1 cells
# Method: as §1
# AurB = AurB (Homo sapiens (Human), UniProt Q96GD4); details: 1 μM, 90 minutes, BCWM.1 cells
# Method: as §1
# AMPKa1 = AMPKa1 (Homo sapiens (Human), UniProt Q13131); details: 1 μM, 90 minutes, BCWM.1 cells
# Method: as §1
# MAST1, MAST2 = details: 1 μM, 90 minutes, BCWM.1 cells
# Method: as §1
# CaMK2d = CaMK2d (Homo sapiens (Human), UniProt Q13557); details: 1 μM, 90 minutes, BCWM.1 cells
# Method: as §1
# STLK6 = STLK6 (Homo sapiens (Human), UniProt Q9C0K7); details: 1 μM, 90 minutes, BCWM.1 cells
# Method: as §1
# TAO1, TAO3 = details: 1 μM, 90 minutes, BCWM.1 cells
# Method: as §1
# PIK3C2B = PIK3C2B (Homo sapiens (Human), UniProt O00750); details: 1 μM, 90 minutes, BCWM.1 cells
# Method: as §1
# CDK11, CDK8 = details: 1 μM, 90 minutes, BCWM.1 cells
# Method: as §1
# TAO2 = TAO2 (Homo sapiens (Human), UniProt Q9UL54); details: 1 μM, 90 minutes, BCWM.1 cells
# Method: as §1
# MYO3A, MYO3B = details: 1 μM, 90 minutes, BCWM.1 cells
# Method: as §1
# GSK3B = GSK3B (Homo sapiens (Human), UniProt P49841)
# Method: as §1
# STLK5 = STLK5 (Homo sapiens (Human), UniProt Q7RTN6); details: 1 μM, 90 minutes, BCWM.1 cells
# Method: as §1
# MARK4 = MARK4 (Homo sapiens (Human), UniProt Q96L34); details: 1 μM, 90 minutes, BCWM.1 cells
# Method: as §1
# ULK3 = ULK3 (Homo sapiens (Human), UniProt Q6PHR2); details: 1 μM, 90 minutes, BCWM.1 cells
# Method: as §1
# TLK1 = TLK1 (Homo sapiens (Human), UniProt Q9UKI8); details: 1 μM, 90 minutes, BCWM.1 cells
# Method: as §1
# Sequence of PI4KB (Q9UBF8 whole entry): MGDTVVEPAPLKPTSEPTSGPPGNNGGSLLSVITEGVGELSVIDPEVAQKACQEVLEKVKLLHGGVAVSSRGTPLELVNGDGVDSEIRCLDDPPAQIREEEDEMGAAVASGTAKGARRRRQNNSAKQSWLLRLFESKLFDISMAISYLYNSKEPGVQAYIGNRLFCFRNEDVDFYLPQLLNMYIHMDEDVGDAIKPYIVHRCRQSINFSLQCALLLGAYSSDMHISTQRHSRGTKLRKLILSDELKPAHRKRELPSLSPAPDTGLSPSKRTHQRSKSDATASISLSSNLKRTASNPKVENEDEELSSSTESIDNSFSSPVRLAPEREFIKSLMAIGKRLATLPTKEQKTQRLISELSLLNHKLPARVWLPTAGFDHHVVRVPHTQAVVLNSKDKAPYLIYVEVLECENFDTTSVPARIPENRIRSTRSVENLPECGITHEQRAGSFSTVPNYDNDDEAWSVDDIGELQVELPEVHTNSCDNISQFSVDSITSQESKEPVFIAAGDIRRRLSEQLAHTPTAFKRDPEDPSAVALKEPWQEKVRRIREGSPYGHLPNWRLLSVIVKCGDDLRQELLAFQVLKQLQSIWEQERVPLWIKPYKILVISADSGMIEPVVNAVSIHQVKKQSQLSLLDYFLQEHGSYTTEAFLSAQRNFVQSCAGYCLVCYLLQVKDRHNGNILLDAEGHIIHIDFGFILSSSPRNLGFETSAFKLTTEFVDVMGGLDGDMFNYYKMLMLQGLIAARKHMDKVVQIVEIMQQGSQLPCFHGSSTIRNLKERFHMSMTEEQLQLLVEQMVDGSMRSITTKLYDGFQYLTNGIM
# Sequence of PYK2 (Q14289 whole entry): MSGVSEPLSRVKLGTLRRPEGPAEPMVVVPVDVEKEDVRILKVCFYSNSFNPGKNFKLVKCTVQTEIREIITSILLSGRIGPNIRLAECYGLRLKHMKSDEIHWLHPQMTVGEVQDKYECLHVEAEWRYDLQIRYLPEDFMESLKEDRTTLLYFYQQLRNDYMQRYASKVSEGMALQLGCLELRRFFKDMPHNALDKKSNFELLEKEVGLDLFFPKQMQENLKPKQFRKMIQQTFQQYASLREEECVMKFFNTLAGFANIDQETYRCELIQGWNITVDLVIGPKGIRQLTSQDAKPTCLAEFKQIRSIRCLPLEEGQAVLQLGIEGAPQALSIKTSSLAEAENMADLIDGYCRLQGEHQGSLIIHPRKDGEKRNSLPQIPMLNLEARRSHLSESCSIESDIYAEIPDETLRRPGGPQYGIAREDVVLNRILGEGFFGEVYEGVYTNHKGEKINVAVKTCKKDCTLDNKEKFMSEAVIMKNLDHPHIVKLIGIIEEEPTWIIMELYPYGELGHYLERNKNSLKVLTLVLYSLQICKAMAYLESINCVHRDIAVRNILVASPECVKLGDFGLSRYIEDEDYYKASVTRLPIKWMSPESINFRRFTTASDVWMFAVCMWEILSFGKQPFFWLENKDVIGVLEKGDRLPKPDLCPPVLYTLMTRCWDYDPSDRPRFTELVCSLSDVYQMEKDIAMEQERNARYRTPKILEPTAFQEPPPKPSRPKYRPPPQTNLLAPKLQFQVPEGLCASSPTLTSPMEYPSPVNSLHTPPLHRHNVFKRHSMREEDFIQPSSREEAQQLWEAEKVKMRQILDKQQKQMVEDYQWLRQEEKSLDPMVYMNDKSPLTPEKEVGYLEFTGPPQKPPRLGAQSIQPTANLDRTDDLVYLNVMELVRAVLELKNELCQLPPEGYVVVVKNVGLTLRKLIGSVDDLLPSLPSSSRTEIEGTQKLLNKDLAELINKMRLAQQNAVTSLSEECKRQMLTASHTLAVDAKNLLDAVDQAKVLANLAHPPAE
# Sequence of MARK4 (Q96L34 whole entry): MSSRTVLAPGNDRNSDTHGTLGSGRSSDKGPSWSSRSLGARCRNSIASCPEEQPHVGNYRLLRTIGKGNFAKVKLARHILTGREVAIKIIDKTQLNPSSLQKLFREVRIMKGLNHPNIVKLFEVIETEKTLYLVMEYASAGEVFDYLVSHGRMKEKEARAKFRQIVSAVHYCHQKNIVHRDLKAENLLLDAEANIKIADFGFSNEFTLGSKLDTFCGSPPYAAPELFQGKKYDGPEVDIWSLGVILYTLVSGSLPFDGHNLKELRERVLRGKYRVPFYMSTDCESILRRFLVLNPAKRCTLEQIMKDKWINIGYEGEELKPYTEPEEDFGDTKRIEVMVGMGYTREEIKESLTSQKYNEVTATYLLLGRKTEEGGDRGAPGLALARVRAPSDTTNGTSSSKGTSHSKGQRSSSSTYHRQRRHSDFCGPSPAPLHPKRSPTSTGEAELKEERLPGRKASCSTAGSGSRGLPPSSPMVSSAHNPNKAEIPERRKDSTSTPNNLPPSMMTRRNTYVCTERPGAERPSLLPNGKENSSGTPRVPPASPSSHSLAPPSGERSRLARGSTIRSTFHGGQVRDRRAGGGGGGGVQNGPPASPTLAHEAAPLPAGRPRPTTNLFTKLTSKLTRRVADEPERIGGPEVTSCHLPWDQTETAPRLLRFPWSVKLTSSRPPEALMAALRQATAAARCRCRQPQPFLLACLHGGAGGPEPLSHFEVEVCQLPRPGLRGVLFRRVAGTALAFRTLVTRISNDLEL
# Sequence of PEK (Q9NZJ5 30-1116): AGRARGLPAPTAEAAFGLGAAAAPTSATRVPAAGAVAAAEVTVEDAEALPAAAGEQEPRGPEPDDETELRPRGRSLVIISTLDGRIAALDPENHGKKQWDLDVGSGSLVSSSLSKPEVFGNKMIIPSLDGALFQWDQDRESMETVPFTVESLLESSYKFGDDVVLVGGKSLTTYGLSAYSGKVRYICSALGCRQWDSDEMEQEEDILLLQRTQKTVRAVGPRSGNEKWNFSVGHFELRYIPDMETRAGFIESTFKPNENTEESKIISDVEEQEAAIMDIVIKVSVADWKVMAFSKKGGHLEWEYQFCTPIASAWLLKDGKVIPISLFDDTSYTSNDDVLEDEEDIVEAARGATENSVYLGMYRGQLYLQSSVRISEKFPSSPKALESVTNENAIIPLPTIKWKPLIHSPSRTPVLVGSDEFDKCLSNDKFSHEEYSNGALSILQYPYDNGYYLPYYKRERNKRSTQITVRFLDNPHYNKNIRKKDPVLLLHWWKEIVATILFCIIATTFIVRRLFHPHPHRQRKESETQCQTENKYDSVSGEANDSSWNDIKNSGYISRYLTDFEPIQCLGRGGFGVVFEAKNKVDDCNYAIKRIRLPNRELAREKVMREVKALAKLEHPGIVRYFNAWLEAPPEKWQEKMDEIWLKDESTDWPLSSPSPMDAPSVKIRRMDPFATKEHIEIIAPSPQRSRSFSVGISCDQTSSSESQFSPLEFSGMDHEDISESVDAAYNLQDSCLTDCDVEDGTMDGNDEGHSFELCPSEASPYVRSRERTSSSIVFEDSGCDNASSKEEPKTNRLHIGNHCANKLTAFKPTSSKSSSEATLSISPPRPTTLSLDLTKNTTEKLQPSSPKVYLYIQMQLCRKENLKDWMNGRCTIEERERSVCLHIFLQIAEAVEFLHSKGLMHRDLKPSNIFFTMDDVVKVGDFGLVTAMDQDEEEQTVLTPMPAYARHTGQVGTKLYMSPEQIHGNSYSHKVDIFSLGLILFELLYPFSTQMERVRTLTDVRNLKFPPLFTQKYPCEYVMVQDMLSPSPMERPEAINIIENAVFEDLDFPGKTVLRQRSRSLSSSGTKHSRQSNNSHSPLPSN
# Sequence of MST2 (Q13188 whole entry): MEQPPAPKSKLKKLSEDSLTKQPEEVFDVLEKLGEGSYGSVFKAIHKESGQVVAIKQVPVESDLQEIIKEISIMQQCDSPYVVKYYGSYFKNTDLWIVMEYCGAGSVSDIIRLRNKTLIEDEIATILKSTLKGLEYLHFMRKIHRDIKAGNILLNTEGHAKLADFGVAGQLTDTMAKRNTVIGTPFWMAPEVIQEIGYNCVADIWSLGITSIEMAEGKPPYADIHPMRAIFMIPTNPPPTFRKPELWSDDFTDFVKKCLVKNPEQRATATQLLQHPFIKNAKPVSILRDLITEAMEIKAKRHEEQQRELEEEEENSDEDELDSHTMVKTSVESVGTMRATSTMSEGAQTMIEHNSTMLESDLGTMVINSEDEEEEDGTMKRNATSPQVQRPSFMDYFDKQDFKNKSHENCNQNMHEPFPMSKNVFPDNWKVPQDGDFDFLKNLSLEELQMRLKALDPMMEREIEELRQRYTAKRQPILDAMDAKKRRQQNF
# Sequence of TLK1 (Q9UKI8 whole entry): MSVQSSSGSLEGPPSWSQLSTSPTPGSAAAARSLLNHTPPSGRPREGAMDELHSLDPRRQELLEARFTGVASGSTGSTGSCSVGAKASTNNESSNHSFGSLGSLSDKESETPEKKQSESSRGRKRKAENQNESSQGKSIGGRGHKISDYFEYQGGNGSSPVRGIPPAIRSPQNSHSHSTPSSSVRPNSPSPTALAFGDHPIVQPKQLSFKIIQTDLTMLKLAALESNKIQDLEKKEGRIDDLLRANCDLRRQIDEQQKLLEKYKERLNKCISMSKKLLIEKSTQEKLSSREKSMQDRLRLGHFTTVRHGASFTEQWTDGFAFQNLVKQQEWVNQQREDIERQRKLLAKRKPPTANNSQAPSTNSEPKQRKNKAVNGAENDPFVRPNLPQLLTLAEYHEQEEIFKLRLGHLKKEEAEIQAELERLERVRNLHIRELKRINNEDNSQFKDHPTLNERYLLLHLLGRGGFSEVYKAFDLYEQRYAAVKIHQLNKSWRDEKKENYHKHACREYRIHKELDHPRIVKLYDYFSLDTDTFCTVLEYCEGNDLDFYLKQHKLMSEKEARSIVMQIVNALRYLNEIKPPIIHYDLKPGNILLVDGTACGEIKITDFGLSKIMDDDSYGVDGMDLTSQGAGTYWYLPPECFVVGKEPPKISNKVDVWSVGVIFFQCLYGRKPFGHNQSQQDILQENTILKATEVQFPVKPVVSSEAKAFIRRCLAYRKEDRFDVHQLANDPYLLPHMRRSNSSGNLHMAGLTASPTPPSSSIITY
compound,measurement,setting,value
C=CC(=O)N1CCC(CNc2nccc(Nc3ncc(C(=O)Nc4c(C)cccc4C)s3)n2)C1 (racemic) [Example I-8],% change of MS signal compared to control sample,PHKg2,6.4%
same,% change of MS signal compared to control sample,EphB2,>90%
same,% change of MS signal compared to control sample,"Wnk1, Wnk2, Wnk3",1.7%
same,% change of MS signal compared to control sample,MST2,4.3%
same,% change of MS signal compared to control sample,"PI4KA, PI4KAP2",−9.9%
same,% change of MS signal compared to control sample,p70S6K,−36.8%
same,% change of MS signal compared to control sample,"SRPK1, SRPK2",33.2%
same,% change of MS signal compared to control sample,CaMK2g,−9.4%
same,% change of MS signal compared to control sample,PITSLRE,−16.1%
same,% change of MS signal compared to control sample,"RSK1, RSK2, RSK3 domain1",−55.6%
same,% change of MS signal compared to control sample,SRPK1,−19.5%
same,% change of MS signal compared to control sample,BLK,>95%
same,% change of MS signal compared to control sample,ZC2/TNIK,19.0%
same,% change of MS signal compared to control sample,VRK2,3.6%
same,% change of MS signal compared to control sample,FRK,95.3%
same,% change of MS signal compared to control sample,ITPK1,−16.4%
same,% change of MS signal compared to control sample,NEK4,15.2%
same,% change of MS signal compared to control sample,[1],13.6%
same,% change of MS signal compared to control sample,PI4KB,44.2% and 41.9%
same,% change of MS signal compared to control sample,NLK,6.1%
same,% change of MS signal compared to control sample,AKT1,−19.5%
same,% change of MS signal compared to control sample,"MST1, MST2",8.7%
same,% change of MS signal compared to control sample,"AurA, AurB, AurC",−2.9%
same,% change of MS signal compared to control sample,MARK3,7.8%
same,% change of MS signal compared to control sample,PYK2,20.3% and 25.5%
same,% change of MS signal compared to control sample,CK2a2,27.5%
same,% change of MS signal compared to control sample,PEK,3.3%
same,% change of MS signal compared to control sample,AurB,−14.3%
same,% change of MS signal compared to control sample,AMPKa1,−0.6%
same,% change of MS signal compared to control sample,"MAST1, MAST2",−32.5%
same,% change of MS signal compared to control sample,CaMK2d,−22.3%
same,% change of MS signal compared to control sample,STLK6,−12.9%
same,% change of MS signal compared to control sample,"TAO1, TAO3",−8.7%
same,% change of MS signal compared to control sample,PIK3C2B,12.5%
same,% change of MS signal compared to control sample,"CDK11, CDK8",19.6%
same,% change of MS signal compared to control sample,TAO2,−4.9%
same,% change of MS signal compared to control sample,"MYO3A, MYO3B",23.1%
same,% change of MS signal compared to control sample,GSK3B,−10.7%
same,% change of MS signal compared to control sample,STLK5,1.1% and −4.0%
same,% change of MS signal compared to control sample,MARK4,−0.4% and 1.6%
C=CC(=O)N1CCCCC(Nc2nccc(Nc3ncc(C(=O)Nc4c(C)cccc4C)s3)n2)C1 (stereo not drawn) [Example I-7],% change of MS signal compared to control sample,ULK3,15.5% and 18.4%
same,% change of MS signal compared to control sample,PHKg2,0.6%
same,% change of MS signal compared to control sample,EphB2,>90%
same,% change of MS signal compared to control sample,"Wnk1, Wnk2, Wnk3",10.4%
same,% change of MS signal compared to control sample,MST2,6.5%
same,% change of MS signal compared to control sample,"PI4KA, PI4KAP2",−17.4%
same,% change of MS signal compared to control sample,p70S6K,−70.1%
same,% change of MS signal compared to control sample,"SRPK1, SRPK2",17.3%
same,% change of MS signal compared to control sample,CaMK2g,−12.8%
same,% change of MS signal compared to control sample,PITSLRE,−9.3%
same,% change of MS signal compared to control sample,"RSK1, RSK2, RSK3 domain1",−58.3%
same,% change of MS signal compared to control sample,SRPK1,1.2%
same,% change of MS signal compared to control sample,BLK,>95%
same,% change of MS signal compared to control sample,ZC2/TNIK,−1.5%
same,% change of MS signal compared to control sample,VRK2,−2.3%
same,% change of MS signal compared to control sample,FRK,93.3%
same,% change of MS signal compared to control sample,ITPK1,−17.5%
same,% change of MS signal compared to control sample,NEK4,7.9%
same,% change of MS signal compared to control sample,[1],6.2%
same,% change of MS signal compared to control sample,PI4KB,36.0% and 35.3%
same,% change of MS signal compared to control sample,NLK,4.2%
same,% change of MS signal compared to control sample,AKT1,−16.4%
same,% change of MS signal compared to control sample,"MST1, MST2",9.5%
same,% change of MS signal compared to control sample,"AurA, AurB, AurC",0.4%
same,% change of MS signal compared to control sample,MARK3,12.7%
same,% change of MS signal compared to control sample,PYK2,16.6% and 28.4%
same,% change of MS signal compared to control sample,CK2a2,−6.4%
same,% change of MS signal compared to control sample,PEK,2.6%
same,% change of MS signal compared to control sample,AurB,−6.1%
same,% change of MS signal compared to control sample,AMPKa1,2.7%
same,% change of MS signal compared to control sample,"MAST1, MAST2",−35.0%
same,% change of MS signal compared to control sample,CaMK2d,−22.5%
same,% change of MS signal compared to control sample,STLK6,−16.3%
same,% change of MS signal compared to control sample,"TAO1, TAO3",−1.8%
same,% change of MS signal compared to control sample,PIK3C2B,39.9%
same,% change of MS signal compared to control sample,"CDK11, CDK8",−3.5%
same,% change of MS signal compared to control sample,TAO2,−18.0%
same,% change of MS signal compared to control sample,"MYO3A, MYO3B",17.2%
same,% change of MS signal compared to control sample,"GSK3B; GSK3B, 1 μM, 90 minutes, BCWM.1 cells",−1.9%
same,% change of MS signal compared to control sample,MARK4,4.9% and 14.1%
same,% change of MS signal compared to control sample,TLK1,1.8% and 5.5%
